Drawing on PubChem BioAssay AID1259407 (Chemical Carcinogenesis Research Information System (CCRIS), 2018), this text covers mutagenic call for four molecules.

For the data set, the system named is CCRIS mutagenicity, Ames/micronucleus/aberration tests. Description: CCRIS mutagenicity studies.
[1] abbreviates: Test System: AMES SALMONELLA TYPHIMURIUM, Strain/Indicator: TA100, Metabolic Activation: NONE, Method: PREINCUBATION

Active and inactive are the calls of the source. No rule for the calls is given here.

With `OCC(O)CCl` (centres undefined), the mutagenic call is, setting by setting: (Test System: AMES SALMONELLA TYPHIMURIUM, Strain/Indicator: TA97, Metabolic Activation: HAMSTER, LIVER, S-9, AROCLOR 1254 (10%), Method: PREINCUBATION) “inactive; negative”; (Test System: AMES SALMONELLA TYPHIMURIUM, Strain/Indicator: TA97, Metabolic Activation: RAT, LIVER, S-9, AROCLOR 1254 (10%), Method: PREINCUBATION) “inactive; negative”; (Test System: AMES SALMONELLA TYPHIMURIUM, Strain/Indicator: TA98, Metabolic Activation: HAMSTER, LIVER, S-9, AROCLOR 1254 (10%), Method: PREINCUBATION) “inactive; negative”; (Test System: AMES SALMONELLA TYPHIMURIUM, Strain/Indicator: TA98, Metabolic Activation: RAT, LIVER, S-9, AROCLOR 1254 (10%), Method: PREINCUBATION) “inactive; negative”; (Test System: AMES SALMONELLA TYPHIMURIUM, Strain/Indicator: TA98, Metabolic Activation: RAT, LIVER, S-9, KANECHLOR 500, Method: PREINCUBATION) “inactive; negative”; (Test System: AMES SALMONELLA TYPHIMURIUM, Strain/Indicator: TA100, Metabolic Activation: HAMSTER, LIVER, S-9, AROCLOR 1254 (10%), Method: PREINCUBATION) “active; positive”. The mutagenic call under setting [1] was “active; positive”; the mutagenic call (Test System: AMES SALMONELLA TYPHIMURIUM, Strain/Indicator: TA100, Metabolic Activation: RAT, LIVER, S-9, AROCLOR 1254 (10%), Method: PREINCUBATION) is “active; positive”; the mutagenic call (Test System: AMES SALMONELLA TYPHIMURIUM, Strain/Indicator: TA100, Metabolic Activation: RAT, LIVER, S-9, KANECHLOR 500, Method: PREINCUBATION) is “inactive; negative”; the mutagenic call (Test System: AMES SALMONELLA TYPHIMURIUM, Strain/Indicator: TA1535, Metabolic Activation: HAMSTER, LIVER, S-9, AROCLOR 1254 (10%), Method: PREINCUBATION) is “active; positive”; the mutagenic call (Test System: AMES SALMONELLA TYPHIMURIUM, Strain/Indicator: TA1535, Metabolic Activation: NONE, Method: PREINCUBATION) is “active; positive”; the mutagenic call (Test System: AMES SALMONELLA TYPHIMURIUM, Strain/Indicator: TA1535, Metabolic Activation: RAT, LIVER, S-9, AROCLOR 1254 (10%), Method: PREINCUBATION) was “active; positive”.

On to `CC(=O)ON(OCc1ccc(Cl)cc1)C(=O)c1ccccc1`, for which the mutagenic call was “active; positive” (Test System: AMES SALMONELLA TYPHIMURIUM, Strain/Indicator: TA100, Metabolic Activation: NONE, Method: STANDARD PLATE) and “active; positive” (Test System: AMES SALMONELLA TYPHIMURIUM, Strain/Indicator: TA100, Metabolic Activation: RAT, S-9, AROCLOR, Method: STANDARD PLATE).

`Cc1cccc2cccnc12`: the mutagenic call is “active; positive” (Test System: AMES SALMONELLA TYPHIMURIUM, Strain/Indicator: TA98, Metabolic Activation: HAMSTER, LIVER, S-9, AROCLOR 1254 (30%), Method: PREINCUBATION); “inactive; negative” (Test System: AMES SALMONELLA TYPHIMURIUM, Strain/Indicator: TA98, Metabolic Activation: NONE, Method: PREINCUBATION); “inactive; negative” (Test System: AMES SALMONELLA TYPHIMURIUM, Strain/Indicator: TA98, Metabolic Activation: RAT, LIVER, S-9, AROCLOR 1254 (30%), Method: PREINCUBATION); “active; positive” (Test System: AMES SALMONELLA TYPHIMURIUM, Strain/Indicator: TA100, Metabolic Activation: HAMSTER, LIVER, S-9, AROCLOR 1254 (30%), Method: PREINCUBATION); “inactive; negative” under setting [1]; “inactive; negative” (Test System: AMES SALMONELLA TYPHIMURIUM, Strain/Indicator: TA100, Metabolic Activation: RAT, LIVER, S-9, AROCLOR 1254 (30%), Method: PREINCUBATION). Besides, the mutagenic call runs as follows: (Test System: AMES SALMONELLA TYPHIMURIUM, Strain/Indicator: TA100, Metabolic Activation: S-9, Method: PREINCUBATION) “inactive; negative”; (Test System: UDS RODENT HEPATOCYTES, Strain/Indicator: THY INCORP (NON-S-PHASE), Metabolic Activation: NONE, Method: AUTORADIOGRAPHY) “active; positive”.

Turning to `Nc1c(S(=O)(=O)O)cc2cc(S(=O)(=O)O)ccc2c1N=Nc1ccc(-c2ccc(N=Nc3c(N)c(S(=O)(=O)O)cc4cc(S(=O)(=O)O)ccc34)c(Cl)c2)cc1Cl`, the mutagenic call (Test System: AMES SALMONELLA TYPHIMURIUM, Strain/Indicator: TA1538, Metabolic Activation: HAMSTER, LIVER, S-9, Method: STANDARD PLATE) is “inactive; negative” and the mutagenic call (Test System: AMES SALMONELLA TYPHIMURIUM, Strain/Indicator: TA1538, Metabolic Activation: RAT, LIVER, S-9, AROCLOR 1254, Method: STANDARD PLATE) was “inactive; negative”.
